These results are taken from US20240300923A1, “IRAK4 Inhibitors” (ASTRAZENECA AB, priority 2022, published 2024).

Assay [1] has as its target T1, IRAK4 (Homo sapiens (Human), UniProt Q9NWZ3). Kind of assay: IRAK4 enzyme assay (mass spectrometry readout). The class given is biochemical. Conditions: human recombinant IRAK4 0.2 nM, 3 mM ATP; geometric mean of at least 2 experiments. The method, then:
Potency of IRAK4 Inhibitor Compounds in IRAK4 Enzyme Assay
The inhibitory activity of compounds against IRAK4 were determined in an enzymatic assay using mass spectrometry readout. Ten point half-log compound concentration response curves, with a top concentration of 1 μM or 10 μM, were generated from 10 mM stocks of compound solubilized in DMSO using an Echo 655 (Labcyte Inc) and added to 384 well assay plates (Greiner #781280). To the assay plates, 10 μL of human recombinant IRAK4 protein (Life Technologies #PV4002) diluted to a final concentration of 0.2 nM in assay buffer (50 mM Tris-HCl pH 7.4, 10 mM MgCl, 5 mM glutathione, 0.01% BSA, 3 mM ATP) was added. The enzyme was incubated with the compounds at room temperature for 15 minutes before a peptide substrate ([…], Innovagen custom synthesis, 10 mM in DMSO) was added to each well to a final concentration of 10 μM using an Echo 655 (Labcyte Inc). After two hours at room temperature, the reaction was stopped with 65 μL of 0.4% formic acid (Merck #33015). The unphosphorylated and phosphorylated peptide were measured by LC-MS/MS on a Waters TQ-S mass spectrometer. Peaks were integrated using the TargetLynx software and the ratios between phosphorylated and unphosphorylated peptides were calculated. Curves were fitted and compound potencies determined in Genedata Screener 19 (Genedata AG). IC50 values are the geometric mean of at least 2 experiments.

The target of assay [2] is T1, IRAK4. Kind of assay: IRAK4 phosphorylation cell assay (IL-1β-stimulated Karpas-299 cells). It is filed as cell-based. The settings on record: IRAK4 auto-phosphorylation (pIRAK4 Thr345/Ser346) in IL-1β-stimulated Karpas-299 cells; geometric mean of at least 2 experiments. The method, then:
IRAK4 Phosphorylation Cell Assay
The activation of IRAK4 by TLR or IL-1R ligands leads to IRAK4 auto-phosphorylation, which can be prevented by IRAK4 kinase inhibitors. The effect of IRAK4 inhibitor compounds on IRAK4 auto-phosphorylation was assessed in IL-1β-stimulated Karpas-299 cells as a measurement of cellular potency. Karpas-299 cells were cultured in RPMI 1640 (Gibco 61870-010) containing 10% FBS (Gibco #10270). Cells were plated at 2×10^4 cells per well in poly-D-lysine coated 384 well plates (Corning #356663) to which compounds had been added at various concentrations (10 point half log dose response with a final top concentration of 30 μM) using an Echo 655 (Labcyte Inc). Cells were centrifuged (250 g, 4 mins), incubated at 37° C. for 1 h, then stimulated with 22.7 ng/mL recombinant IL-1β (R&D Systems, #201-LB-025) at 37° C. for 10 mins, followed by fixation in 4% paraformaldehyde for 20 mins and permeabilization in ice-cold 70% MeOH in PBS for 30 mins. Cells were washed twice with phosphate-buffered saline (PBS) on a BlueWasher (BlueCatBio) then blocked with PBS containing 10% FBS for 20 mins. Blocking solution was removed with a BlueWasher and cells were stained with anti-pIRAK4 (Thr345/Ser346) (CST, #11927, 1:400) in blocking buffer with 0.05% Tween-20 for 1 h, then washed twice with PBS containing 0.05% Tween-20 on a BlueWasher, followed by staining with a Alexa 647-conjugated secondary anti-rabbit IgG antibody (CST, #4414, 1:2,000) and Hoechst 33342 (Sigma, 1:2,000) in blocking buffer with 0.05% Tween-20 for 30 mins. Finally, the cells were washed twice with PBS containing 0.05% Tween-20 and imaged on an ImageXpress Micro (Molecular Devices) with a 10× air objective using the appropriate filters. Images were analysed in Columbus (PerkinElmer) and the fluorescence intensity per cell from the secondary antibody was quantified. The quantified data were analysed in Genedata Screener 19 (Genedata AG). […] IC50 values are the geometric mean of at least 2 experiments.

For another assay, the target named is human cKit kinase (Homo sapiens (Human), UniProt P10721). Kind of assay: cKit enzyme assay (LANCE, Eurofins CEREP). The class given is biochemical. Conditions: human recombinant enzyme, 50 μM ATP; geometric mean of at least n=2, * = single experiment. The method, then: Potency of IRAK4 Inhibitor Compounds in cKit Enzyme Assay
Sequence of human cKit kinase (P10721 26-976): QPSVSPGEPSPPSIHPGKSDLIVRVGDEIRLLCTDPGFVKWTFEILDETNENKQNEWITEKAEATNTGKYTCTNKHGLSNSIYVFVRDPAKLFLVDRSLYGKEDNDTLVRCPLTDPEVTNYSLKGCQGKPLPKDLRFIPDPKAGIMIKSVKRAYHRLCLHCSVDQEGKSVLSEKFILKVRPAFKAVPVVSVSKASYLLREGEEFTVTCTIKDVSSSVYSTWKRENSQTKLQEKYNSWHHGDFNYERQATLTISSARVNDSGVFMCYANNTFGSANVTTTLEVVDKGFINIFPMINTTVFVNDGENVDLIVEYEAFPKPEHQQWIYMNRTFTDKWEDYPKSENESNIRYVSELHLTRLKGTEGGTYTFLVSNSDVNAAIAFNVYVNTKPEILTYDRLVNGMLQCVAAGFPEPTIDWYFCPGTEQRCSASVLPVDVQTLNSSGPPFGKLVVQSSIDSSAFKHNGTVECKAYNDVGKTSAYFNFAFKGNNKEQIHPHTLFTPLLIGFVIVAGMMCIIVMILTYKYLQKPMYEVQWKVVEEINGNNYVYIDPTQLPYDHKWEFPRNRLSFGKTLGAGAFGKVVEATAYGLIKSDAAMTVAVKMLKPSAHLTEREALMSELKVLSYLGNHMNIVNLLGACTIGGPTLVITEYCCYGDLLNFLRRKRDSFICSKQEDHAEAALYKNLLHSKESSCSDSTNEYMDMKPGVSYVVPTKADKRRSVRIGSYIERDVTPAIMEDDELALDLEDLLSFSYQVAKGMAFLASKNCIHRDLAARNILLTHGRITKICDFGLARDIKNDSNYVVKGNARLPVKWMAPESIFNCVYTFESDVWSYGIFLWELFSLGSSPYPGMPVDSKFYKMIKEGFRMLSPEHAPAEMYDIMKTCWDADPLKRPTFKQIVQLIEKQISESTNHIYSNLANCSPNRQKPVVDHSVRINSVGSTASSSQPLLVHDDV
Evaluation of the effects of the IRAK4 inhibitor compounds on the activity of the human cKit kinase quantified by measuring the phosphorylation of the substrate Ulight-TK peptide using a human recombinant enzyme and the LANCE® detection method at Eurofins CEREP, catalog item 3070, SOP no 1C768: The test compound, reference compound or water (control) are mixed with the enzyme (0.38 ng) in a buffer containing 40 mM Hepes/Tris (pH 7.4), 0.8 mM EGTA/Tris, 8 mM MgCl2, 1.6 mM DTT and 0.008% Tween 20. Thereafter, the reaction is initiated by adding 100 nM of the substrate Ulight-TK peptide and 50 μM ATP, and the mixture is incubated for 30 min at room temperature. For control basal measurements, the enzyme is omitted from the reaction mixture. Following incubation, the reaction is stopped by adding 13 mM EDTA. After 5 min, the anti-phopho-PT66 antibody labeled with europium chelate is added. After 60 more min, the fluorescence transfer is measured at lex=337 nm, lem=620 nm and lem=665 nm using a microplate reader (Envision, Perkin Elmer). The enzyme activity is determined by dividing the signal measured at 665 nm by that measured at 620 nm (ratio). The results are expressed as a percent inhibition of the control enzyme activity. The standard inhibitory reference compound is staurosporine, which is tested in each experiment at several concentrations to obtain an inhibition curve from which its IC50 value is calculated.
Data presented are the geometric mean of at least n=2, or as denoted by an*are obtained from a single experiment. […] Kinase selectivity can be a key determinant of clinical utility as off target toxicity can be reduced or eliminated.

T1 sequence (Q9NWZ3 whole entry): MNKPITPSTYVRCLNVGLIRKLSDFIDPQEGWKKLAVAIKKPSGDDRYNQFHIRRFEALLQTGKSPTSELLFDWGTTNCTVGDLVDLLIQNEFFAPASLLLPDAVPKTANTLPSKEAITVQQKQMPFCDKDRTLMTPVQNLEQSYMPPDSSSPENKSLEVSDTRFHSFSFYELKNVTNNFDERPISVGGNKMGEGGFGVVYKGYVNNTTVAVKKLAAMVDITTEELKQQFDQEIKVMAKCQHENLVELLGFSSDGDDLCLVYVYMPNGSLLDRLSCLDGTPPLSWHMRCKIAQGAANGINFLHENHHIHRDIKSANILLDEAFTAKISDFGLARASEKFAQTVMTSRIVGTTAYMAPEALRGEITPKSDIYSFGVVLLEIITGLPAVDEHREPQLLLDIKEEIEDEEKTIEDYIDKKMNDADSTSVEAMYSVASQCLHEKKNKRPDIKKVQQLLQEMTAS

As for `COc1cc2nn([C@H]3CC[C@H](N(C)C(=O)[C@@H](C)O)CC3)cc2cc1C(=O)Nc1cccn(C)c1=O` [Example 8, 2-((1R,4r)-4-((R)-2-Hydroxy-N-methylpropanamido)cyclohexyl)-6-methoxy-N-(1-methyl-2-oxo-1,2-dihydropyridin-3-yl)-2H-indazole-5-carboxamide], the concentration for half-maximal inhibition (IC50) is 0.8 nM on IRAK4 [1], 29 nM at IRAK4 [2] and 7 µM on human cKit kinase.

Consider `COc1cc2nn([C@H]3CC[C@H](n4ccnc4C(C)O)CC3)cc2cc1C(=O)Nc1cccn(C)c1=O` (single isomer, unassigned) [Example 28, 2-((1r,4r)-4-(2-(1-hydroxyethyl)-1H-imidazol-1-yl)cyclohexyl)-6-methoxy-N-(1-methyl-2-oxo-1,2-dihydropyridin-3-yl)-2H-indazole-5-carboxamide], for which the concentration for half-maximal inhibition (IC50) at IRAK4 [1] amounted to 0.5 nM; against IRAK4 [2], 31 nM; on human cKit kinase, 10.6 µM.

On to `COc1cc2nn([C@H]3CC[C@H](N(C)C(=O)[C@H](C)O)CC3)cc2cc1C(=O)Nc1cccn(C2CC2)c1=O` [Example 11, N-(1-Cyclopropyl-2-oxo-1,2-dihydropyridin-3-yl)-2-((1S,4r)-4-((S)-2-hydroxy-N-methylpropanamido)cyclohexyl)-6-methoxy-2H-indazole-5-carboxamide], for which the IC50 on IRAK4 [1] stood at 0.9 nM; at IRAK4 [2], 23 nM; at human cKit kinase, 36.3 µM.

In the case of `COc1cc2nn([C@H]3CC[C@H](N(C)C(=O)[C@@H](C)O)CC3)cc2cc1C(=O)Nc1cccn(-c2cnn(C)c2)c1=O` [Example 15, 2-((1R,4r)-4-((R)-2-Hydroxy-N-methylpropanamido)cyclohexyl)-6-methoxy-N-(1-(1-methyl-1H-pyrazol-4-yl)-2-oxo-1,2-dihydropyridin-3-yl)-2H-indazole-5-carboxamide], the 50% inhibitory concentration (IC50) on IRAK4 [1] came out at 0.9 nM; at IRAK4 [2], 35 nM; on human cKit kinase, 2.7 µM.

For `COc1cc2nn([C@H]3CC[C@H](N(C)C(=O)[C@@H](C)O)CC3)cc2cc1C(=O)Nc1cccn(C2COC2)c1=O` [Example 13, 2-((1R,4r)-4-((R)-2-Hydroxy-N-methylpropanamido)cyclohexyl)-6-methoxy-N-(1-(oxetan-3-yl)-2-oxo-1,2-dihydropyridin-3-yl)-2H-indazole-5-carboxamide], the IC50 at IRAK4 [1] is 0.7 nM; at IRAK4 [2], 30 nM; on human cKit kinase it was greater than 50 µM.

As for `COc1cc2nn([C@H]3CC[C@H](N(C)C(=O)[C@@H](C)O)CC3)cc2cc1C(=O)Nc1cccn(CF)c1=O` [Example 9, N-(1-(Fluoromethyl)-2-oxo-1,2-dihydropyridin-3-yl)-2-((1R,4r)-4-((R)-2-hydroxy-N-methylpropanamido)cyclohexyl)-6-methoxy-2H-indazole-5-carboxamide], the half-inhibitory concentration (IC50) on IRAK4 [1] was 0.4 nM; on IRAK4 [2], 15 nM; on human cKit kinase it was 3.3 µM.

Regarding `COc1cc2nn([C@H]3CC[C@H](N(C)C(C)=O)CC3)cc2cc1C(=O)Nc1cccn(C)c1=O` [Example 1, 6-Methoxy-N-(1-methyl-2-oxo-1,2-dihydropyridin-3-yl)-2-((1r,4r)-4-(N-methylacetamido)cyclohexyl)-2H-indazole-5-carboxamide], the half-maximal inhibitory concentration (IC50) was determined as 1.1 nM at IRAK4 [1], 30 nM on IRAK4 [2] and 13 µM at human cKit kinase.

For `COc1cc2nn([C@H]3CC[C@H](n4cc(C(C)(C)O)nn4)CC3)cc2cc1C(=O)Nc1cccn(C)c1=O` [Example 30, 2-((1r,4r)-4-(4-(2-Hydroxypropan-2-yl)-1H-1,2,3-triazol-1-yl)cyclohexyl)-6-methoxy-N-(1-methyl-2-oxo-1,2-dihydropyridin-3-yl)-2H-indazole-5-carboxamide], the IC50 amounted to 1 nM on IRAK4 [1], 22 nM at IRAK4 [2] and 6.9 µM on human cKit kinase.

For `COc1cc2nn([C@H]3CC[C@H](N4CCCC4=O)CC3)cc2cc1C(=O)Nc1cccn(C)c1=O` [Example 18, 6-Methoxy-N-(1-methyl-2-oxo-1,2-dihydropyridin-3-yl)-2-((1r,4r)-4-(2-oxopyrrolidin-1-yl)cyclohexyl)-2H-indazole-5-carboxamide], the IC50 at IRAK4 [1] came to 1 nM; at IRAK4 [2], 32 nM; at human cKit kinase it was 2.4 µM.

With `COc1cc2nn([C@H]3CC[C@H](n4ccnn4)CC3)cc2cc1C(=O)Nc1cccn(C)c1=O` [Example 27, 2-((1r,4r)-4-(1H-1,2,3-Triazol-1-yl)cyclohexyl)-6-methoxy-N-(1-methyl-2-oxo-1,2-dihydropyridin-3-yl)-2H-indazole-5-carboxamide], the IC50 at IRAK4 [1] is 1.5 nM; on IRAK4 [2], 39 nM; at human cKit kinase it was greater than 100 µM.

`COc1cc2nn([C@H]3CC[C@H](n4ccnc4C(C)O)CC3)cc2cc1C(=O)Nc1cccn(C)c1=O` (single isomer, unassigned) [Example 29, 2-((1r,4r)-4-(2-(1-hydroxyethyl)-1H-imidazol-1-yl)cyclohexyl)-6-methoxy-N-(1-methyl-2-oxo-1,2-dihydropyridin-3-yl)-2H-indazole-5-carboxamide]: the IC50 at IRAK4 [1] was 0.6 nM; against IRAK4 [2] it was 19 nM; on human cKit kinase it was 8.4 µM.

Consider `COc1cc2nn([C@H]3CC[C@H](N(C)C(=O)[C@@H](C)O)CC3)cc2cc1C(=O)Nc1cccn(-c2cn(C)nn2)c1=O` [Example 16, 2-((1R,4r)-4-((R)-2-Hydroxy-N-methylpropanamido)cyclohexyl)-6-methoxy-N-(1-(1-methyl-1H-1,2,3-triazol-4-yl)-2-oxo-1,2-dihydropyridin-3-yl)-2H-indazole-5-carboxamide], for which the IC50 on IRAK4 [1] worked out at 1 nM; against IRAK4 [2], 33 nM; at human cKit kinase, 1.4 µM.

Turning to `COc1cc2nn([C@H]3CC[C@H](N(C)C(C)=O)C[C@H]3C)cc2cc1C(=O)Nc1cccn(C)c1=O` [Example 5, 6-Methoxy-N-(1-methyl-2-oxo-1,2-dihydropyridin-3-yl)-2-((1S,2R,4S)-2-methyl-4-(N-methylacetamido)cyclohexyl)-2H-indazole-5-carboxamide], the 50% inhibitory concentration (IC50) was 0.8 nM on IRAK4 [1], 24 nM against IRAK4 [2] and greater than 40 µM on human cKit kinase.
